Data from patent publication US4324728A, “Compound nanaomycin A and derivatives thereof and a process for producing the same” (The Kitasato Institute, priority 1976, dated 1982).
≈ marks a conversion by molar mass, not a printed value.

Columns and labels:
[1] = system: mycoplasma, Gram-positive bacteria and tricophyton; experiment: Antimicrobial activity (in words); type: cell-based
[2] = system: Acholeplasma laidlawii (A); experiment: Antimycoplasma activity, inhibition zone; type: cell-based; settings: Hokken PPLO agar, pH 7.8, 8 days, 37° C.
Protocol: H Hokken PPLO agar (pH 7.8, 8 days, 37° C.)
(§1) Nanaomycin A and derivatives thereof according to the present invention are assayed in a similar manner to that designated as the paper disc method by Itoh, et al [J. of Antibiotics, 24, 855-859 (1971)], for example, as follows: […]

Trichophyton pedis 804 = experiment: Minimal inhibitory concentration (agar); type: cell-based; settings: Trichophyton pedis, 804, 96 h, pH 6.4
Saccharomyces sake = experiment: Minimal inhibitory concentration (agar); type: cell-based; settings: Saccharomyces, 96 h; potato agar, pH 6.4, 4 days, 27° C.; read-out: MIC
Trichophyton ferrugineum = experiment: Minimal inhibitory concentration (agar); type: cell-based; settings: Microsporum ferrugineum, 96 h; potato agar, pH 6.4, 4 days, 27° C.; read-out: MIC
Microsporum gypseum 704 = experiment: Minimal inhibitory concentration (agar); type: cell-based; settings: Nannizzia gypsea, 704, 96 h; potato agar, pH 6.4, 4 days, 27° C.
Trichophyton roseum = experiment: Minimal inhibitory concentration (agar); type: cell-based; settings: Trichophyton, 96 h, pH 6.4, potato agar, pH 6.4, 4 days, 27° C.; read-out: MIC
[3] = system: Aspergillus fumigatus IAM 2162; experiment: Minimal inhibitory concentration (agar); type: cell-based; settings: IAM2162, 96 h, potato agar, pH 6.4, 4 days, 27° C.
Protocol: | P potato agar (pH 6.4, 4 days, 27° C.)

[4] = system: Mycobacterium smegmatis ATCC 607; experiment: Minimal inhibitory concentration (agar); type: cell-based; settings: Mycolicibacterium smegmatis, ATCC607, 48 h; nutrient agar, pH 7.0, 2 days, 37° C.
[5] = system: Aspergillus niger ATCC 6275; experiment: Minimal inhibitory concentration (agar); type: cell-based; settings: ATCC6275, 96 h, potato agar, pH 6.4, 4 days, 27° C., read-out: MIC
[6] = system: Trichophyton interdigitale; experiment: Minimal inhibitory concentration (agar); type: cell-based; settings: Trichophyton interdigitale, 96 h; potato agar, pH 6.4, 4 days, 27° C.; read-out: MIC
Sarcina lutea PCI 1001 = experiment: Minimal inhibitory concentration (agar); type: cell-based; settings: Micrococcus luteus, PCI1001, 48 h, pH 7, nutrient agar, pH 7.0, 2 days, 37° C.; read-out: MIC
Protocol: (§2) Medium N nutrient agar (pH 7.0, 2 days, 37° C.)
(§3) MIC Minimal inhibitory concentration
(§4) N nutrient agar (pH 7.0, 2 days, 37° C.)

[7] = system: Bacillus subtilis PCI 219; experiment: Minimal inhibitory concentration (agar); type: cell-based; settings: Bacillus subtilis, PCI219, 48 h, pH 7, nutrient agar, pH 7.0, 2 days, 37° C.; read-out: MIC
Protocol: as §2, §3, §4

[8] = system: Escherichia coli NIHJ (JC-2); experiment: Minimal inhibitory concentration (agar); type: cell-based; settings: 48 h, pH 7, nutrient agar, pH 7.0, 2 days, 37° C.
Protocol: as §2, §3, §4

[9] = system: Staphylococcus aureus FDA 209P (JC-1); experiment: Minimal inhibitory concentration (agar); type: cell-based; settings: FDA209P, 48 h, nutrient agar, pH 7.0, 2 days, 37° C.
Protocol: as §2, §3, §4

[10] = system: Mycoplasma gallisepticum KP-13; experiment: Antimycoplasma activity, inhibition zone; type: cell-based; settings: Eiken PPLO agar, pH 7.8, 8 days, 37° C.
Protocol: E Eiken PPLO agar (pH 7.8, 8 days, 37° C.)
as §1

[11] = system: parasite of the genus Tricophyton; experiment: Therapeutic effect on infectious diseases in guinea pigs and cattle; type: in vivo
Protocol: When dermatomycosis of cattle caused by mass infection of Trichophyton verrucosum is treated with nanaomycin A, nanaomycin A is dissolved or suspended in a suitable carrier, for example, olive oil, and is coated on the affected part directly with or without removal of the scales. […] The results obtained by once-coating of nanaomycin A and by twice-coating (the second coating is carried out a week after the first coating) are shown in Tables 2 and 3, respectively.

Piricularia oryzae = experiment: microbe, parasite or virus in culture; type: cell-based; settings: 96 h, pH 6.4, potato agar, pH 6.4, 4 days, 27° C.
Trichophyton asteroides = experiment: Minimal inhibitory concentration (agar); type: cell-based; settings: Trichophyton, 96 h; potato agar, pH 6.4, 4 days, 27° C.; read-out: MIC
Solubility = type: physicochemical
Salmonella typhimurium = experiment: Minimal inhibitory concentration (agar); type: cell-based; settings: Salmonella enterica, 48 h, nutrient agar, pH 7.0, 2 days, 37° C.
Trichophyton violaceum = experiment: Minimal inhibitory concentration (agar); type: cell-based; settings: Trichophyton violaceum, 96 h; potato agar, pH 6.4, 4 days, 27° C.; read-out: MIC
[12] = system: Staphylococcus aureus FDA 209P; experiment: Minimal inhibitory concentration (agar); type: cell-based; settings: FDA209P, 48 h, nutrient agar, pH 7.0, 2 days, 37° C.
Trichophyton purpureum = experiment: Minimal inhibitory concentration (agar); type: cell-based; settings: 96 h, pH 6.4
[13] = system: Trichophyton mentagrophytes; experiment: Minimal inhibitory concentration (agar); type: cell-based; settings: 96 h, pH 6.4, potato agar, pH 6.4, 4 days, 27° C.
Bacillus cereus T = experiment: Minimal inhibitory concentration (agar); type: cell-based; settings: 48 h, nutrient agar, pH 7.0, 2 days, 37° C.
Protocol: as §4

[14] = system: Aerobacter aerogenes IAM 1183; experiment: Minimal inhibitory concentration (agar); type: cell-based; settings: Klebsiella aerogenes, IAM1183, 48 h; nutrient agar, pH 7.0, 2 days, 37° C.
Protocol: as §4

[15] = system: Staphylococcus aureus KB 61 (R-TC, EM); experiment: Minimal inhibitory concentration (agar); type: cell-based; settings: 48 h, pH 7
Protocol: as §4

[16] = system: Staphylococcus aureus FS 1227 (PC-R); experiment: Minimal inhibitory concentration (agar); type: cell-based; settings: 48 h, nutrient agar, pH 7.0, 2 days, 37° C., penicillin resistant strain
Protocol: as §4

[17] = system: Proteus vulgaris IFO 3167; experiment: Minimal inhibitory concentration (agar); type: cell-based; settings: IFO3167, 48 h, nutrient agar, pH 7.0, 2 days, 37° C.
Protocol: as §4

[18] = system: Staphylococcus aureus KB 64 (R-TC, EM); experiment: Minimal inhibitory concentration (agar); type: cell-based; settings: 48 h, pH 7
Protocol: as §4

[19] = system: Corynebacterium paurometabolum; experiment: Minimal inhibitory concentration (agar); type: cell-based; settings: Tsukamurella paurometabola, 48 h; nutrient agar, pH 7.0, 2 days, 37° C.
Protocol: as §4

Proteus mirabilis = experiment: Minimal inhibitory concentration (agar); type: cell-based; settings: 48 h, nutrient agar, pH 7.0, 2 days, 37° C.
Protocol: as §4

Shigella sonnei E 33 = experiment: Minimal inhibitory concentration (agar); type: cell-based; settings: E33, 48 h, nutrient agar, pH 7.0, 2 days, 37° C.
Protocol: as §4

[20] = system: Pseudomonas aeruginosa P-3; experiment: Minimal inhibitory concentration (agar); type: cell-based; settings: P3, 48 h, nutrient agar, pH 7.0, 2 days, 37° C.
Protocol: as §4

Candida albicans = experiment: Minimal inhibitory concentration (agar); type: cell-based; settings: Candida albicans, 96 h, pH 6.4, potato agar, pH 6.4, 4 days, 27° C.; read-out: MIC
Protocol: (§5) P potato agar (pH 6.4, 4 days, 27° C.)
as §3
(§6) Minimal inhibitory concentration was assayed by agar dilution method
(§7) (potato agar, pH 6.4, 27° C., 4 days).

Trichophyton rubrum = experiment: Minimal inhibitory concentration (agar); type: cell-based; settings: Trichophyton rubrum, 96 h, pH 6.4, potato agar, pH 6.4, 4 days, 27° C.; read-out: MIC
Protocol: as §5, §3, §6, §7

Trichophyton schoenleini = experiment: Minimal inhibitory concentration (agar); type: cell-based; settings: Trichophyton, 96 h, pH 6.4, potato agar, pH 6.4, 4 days, 27° C.; read-out: MIC
Protocol: as §5, §3, §6, §7

COC(=O)CC1CC2=C(C(=O)c3c(O)cccc3C2=O)C(C)O1 (centres unmarked) [Nanaomycin A methyl ester, nanaomycin A methyl ester]
antimicrobial activity [1]: generally lower than those of other derivatives of nanaomycin A | Inhibition Zone [2]: none | MIC (Trichophyton pedis 804): 12.5 µg/mL (≈ 39.5 µM) | MIC (Saccharomyces sake): 50 µg/mL (≈ 158 µM) | MIC (Trichophyton ferrugineum): 12.5 µg/mL (≈ 39.5 µM) | MIC (Microsporum gypseum 704): 1.6 µg/mL (≈ 5.06 µM) | MIC (Trichophyton roseum): 0.8 µg/mL (≈ 2.53 µM) | MIC [3]: 100 µg/mL (≈ 316 µM) | MIC [4]: 12.5 µg/mL (≈ 39.5 µM) | MIC [5]: > 100 µg/mL | MIC [6]: 12.5 µg/mL (≈ 39.5 µM) | MIC (Sarcina lutea PCI 1001): 25 µg/mL (≈ 79 µM) | MIC [7]: 25 µg/mL (≈ 79 µM) | MIC [8]: > 100 µg/mL | MIC [9]: 25 µg/mL (≈ 79 µM) | Inhibition Zone [10]: 28.5 mm | therapeutic effect on Trichophyton infectious diseases [11]: inferior to those of nanaomycin A and acetylnanaomycin A | MIC (Piricularia oryzae): 12.5 µg/mL (≈ 39.5 µM) | MIC (Trichophyton asteroides): 12.5 µg/mL (≈ 39.5 µM) | Solubility in ether (Solubility; ether): Soluble | Solubility in methanol, ethanol, ethylacetate, chloroform and acetone (Solubility; methanol, ethanol, ethylacetate, chloroform, acetone): Soluble | Solubility in n-hexane and petroleum ether (Solubility; n-hexane, petroleum ether): Insoluble | Solubility in water (Solubility; water): Insoluble | MIC (Salmonella typhimurium): > 100 µg/mL | MIC (Trichophyton violaceum): 12.5 µg/mL (≈ 39.5 µM) | MIC [12]: 12.5 µg/mL (≈ 39.5 µM) | MIC (Trichophyton purpureum): 12.5 µg/mL (≈ 39.5 µM) | MIC [13]: 6.3 µg/mL (≈ 19.9 µM) | MIC (Bacillus cereus T): 25 µg/mL (≈ 79 µM) | MIC [14]: > 100 µg/mL | MIC [15]: 12.5 µg/mL (≈ 39.5 µM) | MIC [16]: 25 µg/mL (≈ 79 µM) | MIC [17]: > 100 µg/mL | MIC [18]: 12.5 µg/mL (≈ 39.5 µM) | MIC [19]: 25 µg/mL (≈ 79 µM) | MIC (Proteus mirabilis): > 100 µg/mL | MIC (Shigella sonnei E 33): > 100 µg/mL | MIC [20]: > 100 µg/mL | MIC (Candida albicans): > 100 µg/mL | MIC (Trichophyton rubrum): < 0.2 µg/mL | MIC (Trichophyton schoenleini): < 0.2 µg/mL
